Test results: PubChem BioAssay (NCI)
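Results reflect a 48-hour exposure of cells in 96-well plates to compound at five concentrations. Abbreviation: GI50, concentration required for 50% inhibition of growth. The concentration for full growth arrest is given as TGI.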

Experiments:
Test in all cases: NCI anticancer screen, dose series, 48 h
M14 melanoma = system: M14 melanoma
PC-3 prostate = system: PC-3 prostate
NCI-H522 lung = system: NCI-H522 lung
UACC-257 melanoma = system: UACC-257 melanoma
SW-620 colon = system: SW-620 colon
SF-539 CNS = system: SF-539 CNS
SNB-19 CNS = system: SNB-19 CNS
OVCAR-3 ovarian = system: OVCAR-3 ovarian
HOP-92 NSCLC = system: HOP-92 NSCLC
RXF 393 renal = system: RXF 393 renal
OVCAR-4 ovarian = system: OVCAR-4 ovarian
786-0 renal = system: 786-0 renal
SF-268 CNS = system: SF-268 CNS
SNB-75 CNS = system: SNB-75 CNS
MDA-MB-231 breast = system: MDA-MB-231 breast
NCI-H226 lung = system: NCI-H226 lung
HCC-2998 colon = system: HCC-2998 colon
SK-MEL-28 melanoma = system: SK-MEL-28 melanoma
BT-549 breast = system: BT-549 breast
T-47D breast = system: T-47D breast
SK-MEL-5 melanoma = system: SK-MEL-5 melanoma
ACHN renal = system: ACHN renal
MOLT-4 leukemia = system: MOLT-4 leukemia
MCF7 breast = system: MCF7 breast
SK-OV-3 ovarian = system: SK-OV-3 ovarian
TK-10 renal = system: TK-10 renal
NCI-H23 lung = system: NCI-H23 lung
OVCAR-5 ovarian = system: OVCAR-5 ovarian
UACC-62 melanoma = system: UACC-62 melanoma
HCT-15 colon = system: HCT-15 colon
LOX IMVI melanoma = system: LOX IMVI melanoma
SK-MEL-2 melanoma = system: SK-MEL-2 melanoma
CCRF-CEM leukemia = system: CCRF-CEM leukemia
DU-145 prostate = system: DU-145 prostate
MALME-3M melanoma = system: MALME-3M melanoma
UO-31 renal = system: UO-31 renal
RPMI-8226 leukemia = system: RPMI-8226 leukemia
NCI-H460 lung = system: NCI-H460 lung
CAKI-1 renal = system: CAKI-1 renal
U251 CNS = system: U251 CNS
HL-60(TB) leukemia = system: HL-60(TB) leukemia
NCI/ADR-RES ovarian = system: NCI/ADR-RES ovarian
SF-295 CNS = system: SF-295 CNS
HT29 colon = system: HT29 colon
HOP-62 NSCLC = system: HOP-62 NSCLC
SR leukemia = system: SR leukemia
EKVX NSCLC = system: EKVX NSCLC
OVCAR-8 ovarian = system: OVCAR-8 ovarian
MDA-MB-468 breast = system: MDA-MB-468 breast
COLO 205 colon = system: COLO 205 colon
K-562 leukemia = system: K-562 leukemia
SN12C renal = system: SN12C renal
HCT-116 colon = system: HCT-116 colon
IGROV1 ovarian = system: IGROV1 ovarian
A549 NSCLC = system: A549 NSCLC
MDA-MB-435 = system: MDA-MB-435
A498 renal = system: A498 renal
HS 578T breast = system: HS 578T breast
KM12 colon = system: KM12 colon

Structure (SMILES): c1ccc(C(=C(c2ccc(OCCN3CCCCC3)cc2)c2ccc(OCCN3CCCCC3)cc2)C2CCCC2)cc1
- GI50 (M14 melanoma): 3.43 µM
- TGI (M14 melanoma): 8.04 µM
- GI50 (PC-3 prostate): 3.58 µM
- TGI (PC-3 prostate): 7.79 µM
- GI50 (NCI-H522 lung): 2.61 µM
- TGI (NCI-H522 lung): 5.9 µM
- GI50 (UACC-257 melanoma): 4.11 µM
- TGI (UACC-257 melanoma): 12 µM
- GI50 (SW-620 colon): 2.76 µM
- TGI (SW-620 colon): 5.35 µM
- GI50 (SF-539 CNS): 2.88 µM
- TGI (SF-539 CNS): 5.4 µM
- GI50 (SNB-19 CNS): 4.39 µM
- TGI (SNB-19 CNS): 14.6 µM
- GI50 (OVCAR-3 ovarian): 3.05 µM
- TGI (OVCAR-3 ovarian): 5.85 µM
- GI50 (HOP-92 NSCLC): 2.57 µM
- TGI (HOP-92 NSCLC): 5.85 µM
- GI50 (RXF 393 renal): 2.91 µM
- TGI (RXF 393 renal): 7.11 µM
- GI50 (OVCAR-4 ovarian): 5.7 µM
- TGI (OVCAR-4 ovarian): > 18 µM
- GI50 (786-0 renal): 5.54 µM
- TGI (786-0 renal): > 18 µM
- GI50 (SF-268 CNS): 3.53 µM
- TGI (SF-268 CNS): 9.09 µM
- GI50 (SNB-75 CNS): 1.97 µM
- TGI (SNB-75 CNS): 13.8 µM
- GI50 (MDA-MB-231 breast): 2.94 µM
- TGI (MDA-MB-231 breast): 6.01 µM
- GI50 (NCI-H226 lung): 3.32 µM
- TGI (NCI-H226 lung): 13.3 µM
- GI50 (HCC-2998 colon): 2.83 µM
- TGI (HCC-2998 colon): 5.33 µM
- GI50 (SK-MEL-28 melanoma): 3.03 µM
- TGI (SK-MEL-28 melanoma): 5.81 µM
- GI50 (BT-549 breast): 2.8 µM
- TGI (BT-549 breast): 5.38 µM
- GI50 (T-47D breast): 3.98 µM
- TGI (T-47D breast): 15.4 µM
- GI50 (SK-MEL-5 melanoma): 2.73 µM
- TGI (SK-MEL-5 melanoma): 5.23 µM
- GI50 (ACHN renal): > 18 µM
- TGI (ACHN renal): > 18 µM
- GI50 (MOLT-4 leukemia): 2.59 µM
- TGI (MOLT-4 leukemia): 7.72 µM
- GI50 (MCF7 breast): 1.93 µM
- TGI (MCF7 breast): 4.52 µM
- GI50 (SK-OV-3 ovarian): 4.27 µM
- TGI (SK-OV-3 ovarian): 11.8 µM
- GI50 (TK-10 renal): 8.11 µM
- TGI (TK-10 renal): > 18 µM
- GI50 (NCI-H23 lung): 5.16 µM
- TGI (NCI-H23 lung): 17.9 µM
- GI50 (OVCAR-5 ovarian): 4.67 µM
- TGI (OVCAR-5 ovarian): > 18 µM
- GI50 (UACC-62 melanoma): 2.9 µM
- TGI (UACC-62 melanoma): 5.35 µM
- GI50 (HCT-15 colon): > 18 µM
- TGI (HCT-15 colon): > 18 µM
- GI50 (LOX IMVI melanoma): 2.94 µM
- TGI (LOX IMVI melanoma): 5.43 µM
- GI50 (SK-MEL-2 melanoma): 3.78 µM
- TGI (SK-MEL-2 melanoma): 9.2 µM
- GI50 (CCRF-CEM leukemia): 3 µM
- TGI (CCRF-CEM leukemia): 6.55 µM
- GI50 (DU-145 prostate): 4.25 µM
- TGI (DU-145 prostate): 10.5 µM
- GI50 (MALME-3M melanoma): 2.69 µM
- TGI (MALME-3M melanoma): 5.1 µM
- GI50 (UO-31 renal): > 18 µM
- TGI (UO-31 renal): > 18 µM
- GI50 (RPMI-8226 leukemia): 3.44 µM
- TGI (RPMI-8226 leukemia): 8.24 µM
- GI50 (NCI-H460 lung): 2.82 µM
- TGI (NCI-H460 lung): 5.41 µM
- GI50 (CAKI-1 renal): 7.87 µM
- TGI (CAKI-1 renal): > 18 µM
- GI50 (U251 CNS): 3.56 µM
- TGI (U251 CNS): 8.23 µM
- GI50 (HL-60(TB) leukemia): 1.68 µM
- TGI (HL-60(TB) leukemia): 5.42 µM
- GI50 (NCI/ADR-RES ovarian): > 18 µM
- TGI (NCI/ADR-RES ovarian): > 18 µM
- GI50 (SF-295 CNS): 5.14 µM
- TGI (SF-295 CNS): > 18 µM
- GI50 (HT29 colon): 3.1 µM
- TGI (HT29 colon): 6.24 µM
- GI50 (HOP-62 NSCLC): 5.01 µM
- TGI (HOP-62 NSCLC): > 18 µM
- GI50 (SR leukemia): 2.99 µM
- TGI (SR leukemia): 8.46 µM
- GI50 (EKVX NSCLC): 8.68 µM
- TGI (EKVX NSCLC): > 18 µM
- GI50 (OVCAR-8 ovarian): 6.93 µM
- TGI (OVCAR-8 ovarian): > 18 µM
- GI50 (MDA-MB-468 breast): 2.38 µM
- TGI (MDA-MB-468 breast): 5.19 µM
- GI50 (COLO 205 colon): 3.24 µM
- TGI (COLO 205 colon): 6.71 µM
- GI50 (K-562 leukemia): 1.64 µM
- TGI (K-562 leukemia): > 18 µM
- GI50 (SN12C renal): 4.08 µM
- TGI (SN12C renal): 11.8 µM
- GI50 (HCT-116 colon): 3.48 µM
- TGI (HCT-116 colon): 6.82 µM
- GI50 (IGROV1 ovarian): 2.98 µM
- TGI (IGROV1 ovarian): 5.65 µM
- GI50 (A549 NSCLC): 3.29 µM
- TGI (A549 NSCLC): 7.96 µM
- GI50 (MDA-MB-435): 2.59 µM
- TGI (MDA-MB-435): 5.37 µM
- GI50 (A498 renal): > 18 µM
- TGI (A498 renal): > 18 µM
- GI50 (HS 578T breast): 3.76 µM
- TGI (HS 578T breast): 11.8 µM
- GI50 (KM12 colon): 3.45 µM
- TGI (KM12 colon): 6.48 µM
